Experimental findings from PMC5739597, “Discovery and evaluation of triple inhibitors of VEGFR-2, TIE-2 and EphB4 as anti-angiogenic and anti-cancer agents” (Oncotarget, 2017) are described below.

Where “and” joins values, the source holds several entries; their conditions need not be identical. Equal values may be shown once. Read-outs that look alike come from different tables or passages of the source.

One data set addresses EGFR (Homo sapiens, UniProt P00533). Put plainly: Kinase-Glo Plus RTK selectivity assay, EGFR. In kind it is biochemical. The following applies: 10 μM ATP. On the procedure:
(§1) A 50 μL reaction mixture contains 40 mM Tris, pH 7.4, 10 mM MgCl2, 0.1 mg/ml BSA, 1 mM DTT, 10 μM ATP, kinase and substrate (0.2 mg/mL Poly(Glu, Tyr)/10 μM ATP). The test compounds were diluted in 10% DMSO and 5 μL of the dilution was added to a 50 μL reaction so that the final concentration of DMSO is 1% in all of reactions. The assay was performed using Kinase-Glo Plus luminescence kinase assay kit. It measures kinase activity by quantitating the amount of ATP remaining in solution following a kinase reaction. The luminescent signal from the assay is correlated with the amount of ATP present and is inversely correlated with the amount of kinase activity. The IC50 values were calculated using nonlinear regression with normalized dose−response fit using Prism GraphPad software.

For a further data set, the target named is c-Kit (Homo sapiens, UniProt P10721). Put plainly: Kinase-Glo Plus RTK selectivity assay, c-Kit. The class given is biochemical. The following applies: 10 μM ATP. On the procedure:
as §1

A further data set concerns the target T1, EphB4 (Homo sapiens, UniProt P54760).
T1 sequence (P54760 16-987): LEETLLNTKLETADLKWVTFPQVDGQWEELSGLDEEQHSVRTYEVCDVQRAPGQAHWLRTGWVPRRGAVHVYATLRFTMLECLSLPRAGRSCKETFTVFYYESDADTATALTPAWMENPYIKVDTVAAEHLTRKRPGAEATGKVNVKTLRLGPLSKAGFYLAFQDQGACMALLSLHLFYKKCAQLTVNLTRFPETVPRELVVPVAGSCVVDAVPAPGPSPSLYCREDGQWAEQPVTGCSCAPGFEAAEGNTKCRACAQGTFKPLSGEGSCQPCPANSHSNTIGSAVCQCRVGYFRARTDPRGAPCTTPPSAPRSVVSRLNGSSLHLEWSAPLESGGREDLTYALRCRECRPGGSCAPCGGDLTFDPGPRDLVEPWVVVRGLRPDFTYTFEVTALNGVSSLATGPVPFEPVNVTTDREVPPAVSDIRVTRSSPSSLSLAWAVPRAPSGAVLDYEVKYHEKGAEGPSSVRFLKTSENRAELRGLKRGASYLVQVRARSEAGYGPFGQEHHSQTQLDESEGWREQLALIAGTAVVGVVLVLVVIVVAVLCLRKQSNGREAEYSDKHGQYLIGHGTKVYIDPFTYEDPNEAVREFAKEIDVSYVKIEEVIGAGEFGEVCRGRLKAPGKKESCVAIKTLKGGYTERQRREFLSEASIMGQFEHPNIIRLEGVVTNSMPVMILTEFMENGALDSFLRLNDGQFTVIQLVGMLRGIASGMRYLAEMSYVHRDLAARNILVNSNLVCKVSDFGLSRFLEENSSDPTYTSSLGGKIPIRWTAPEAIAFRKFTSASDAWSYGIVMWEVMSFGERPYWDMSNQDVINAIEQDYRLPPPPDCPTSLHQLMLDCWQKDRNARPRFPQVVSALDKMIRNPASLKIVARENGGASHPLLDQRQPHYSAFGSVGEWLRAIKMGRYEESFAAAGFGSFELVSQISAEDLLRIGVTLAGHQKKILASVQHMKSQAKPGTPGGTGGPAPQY
Put plainly: ADP-Glo in vitro RTK inhibition assay, EphB4. The class given is biochemical. The following applies: ATP 50 μM. On the procedure:
(§2) In order to validate the direct effect of title compounds on VEGFR-2, Tie-2, and EphB4 kinases, we performed in vitro assay using the ADP-Glo Kinase Assay Kit (Promega, Wisconsin, USA).
(§3) The kinase assay was performed in a reaction mixture of final volume of 10 μL. […] The plate was incubated at 30°C for 1 h. After the plate was cooled at room temperature for 5 min, 5 μL of ADP-Glo reagent was added into each well to stop the reaction and consume the remaining […] within 40 min. At the end, 10 μL of kinase detection reagent was added into the well and incubated for 30 min to produce a luminescence signal. […] The assay plate was incubated at 30°C for 4 h. After the plate was cooled at room temperature for 5 min, 5 μL of ADP-Glo reagent was added into each well to stop the reaction and consume the remaining […] within 1 h. At the end, 10 μL of kinase detection reagent was added into each well and incubated for 30 min to produce a luminescence signal. The luminescence was read by VICTOR-X multi-label plate reader.

The target in another data set is FGFR-4 (Homo sapiens, UniProt P22455). Put plainly: Kinase-Glo Plus RTK selectivity assay, FGFR-4. The class given is biochemical. The following applies: 10 μM ATP. On the procedure: as §1
For orientation: Kinase-Glo reads ATP consumption through a luciferase reaction.

For a further data set, the target named is FGFR-1 (Homo sapiens, UniProt P11362). Put plainly: Kinase-Glo Plus RTK selectivity assay, FGFR-1. The class given is biochemical. The settings on record: 10 μM ATP. On the procedure:
The assay was performed using Kinase-Glo Plus luminescence kinase assay kit. It measures kinase activity by quantitating the amount of ATP remaining in solution following a kinase reaction. The luminescent signal from the assay is correlated with the amount of ATP present and is inversely correlated with the amount of kinase activity.

A further data set concerns the target VEGFR-1 (Homo sapiens, UniProt P17948). Put plainly: Kinase-Glo Plus RTK selectivity assay, VEGFR-1. The class given is biochemical. The settings on record: 10 μM ATP. The protocol:
as §1

For a further data set, the target named is B-Raf (Homo sapiens, UniProt P15056). Put plainly: Kinase-Glo Plus RTK selectivity assay, B-Raf. In kind it is biochemical. The following applies: 10 μM ATP. On the procedure: as §1
A further data set has as its target TIE-2 (Homo sapiens, UniProt Q02763). Put plainly: ADP-Glo in vitro RTK inhibition assay, TIE-2. In kind it is biochemical. The following applies: ATP 50 μM. On the procedure: as §2, §3
In general terms: In ADP-Glo the light output rises with the ADP produced.

The target in data set [1] is T2, VEGFR-2 (Homo sapiens, UniProt P35968). Put plainly: ADP-Glo in vitro RTK inhibition assay, VEGFR-2. In kind it is biochemical. The following applies: ATP 50 μM. The protocol: as §2, §3
T2 sequence (P35968 20-1356): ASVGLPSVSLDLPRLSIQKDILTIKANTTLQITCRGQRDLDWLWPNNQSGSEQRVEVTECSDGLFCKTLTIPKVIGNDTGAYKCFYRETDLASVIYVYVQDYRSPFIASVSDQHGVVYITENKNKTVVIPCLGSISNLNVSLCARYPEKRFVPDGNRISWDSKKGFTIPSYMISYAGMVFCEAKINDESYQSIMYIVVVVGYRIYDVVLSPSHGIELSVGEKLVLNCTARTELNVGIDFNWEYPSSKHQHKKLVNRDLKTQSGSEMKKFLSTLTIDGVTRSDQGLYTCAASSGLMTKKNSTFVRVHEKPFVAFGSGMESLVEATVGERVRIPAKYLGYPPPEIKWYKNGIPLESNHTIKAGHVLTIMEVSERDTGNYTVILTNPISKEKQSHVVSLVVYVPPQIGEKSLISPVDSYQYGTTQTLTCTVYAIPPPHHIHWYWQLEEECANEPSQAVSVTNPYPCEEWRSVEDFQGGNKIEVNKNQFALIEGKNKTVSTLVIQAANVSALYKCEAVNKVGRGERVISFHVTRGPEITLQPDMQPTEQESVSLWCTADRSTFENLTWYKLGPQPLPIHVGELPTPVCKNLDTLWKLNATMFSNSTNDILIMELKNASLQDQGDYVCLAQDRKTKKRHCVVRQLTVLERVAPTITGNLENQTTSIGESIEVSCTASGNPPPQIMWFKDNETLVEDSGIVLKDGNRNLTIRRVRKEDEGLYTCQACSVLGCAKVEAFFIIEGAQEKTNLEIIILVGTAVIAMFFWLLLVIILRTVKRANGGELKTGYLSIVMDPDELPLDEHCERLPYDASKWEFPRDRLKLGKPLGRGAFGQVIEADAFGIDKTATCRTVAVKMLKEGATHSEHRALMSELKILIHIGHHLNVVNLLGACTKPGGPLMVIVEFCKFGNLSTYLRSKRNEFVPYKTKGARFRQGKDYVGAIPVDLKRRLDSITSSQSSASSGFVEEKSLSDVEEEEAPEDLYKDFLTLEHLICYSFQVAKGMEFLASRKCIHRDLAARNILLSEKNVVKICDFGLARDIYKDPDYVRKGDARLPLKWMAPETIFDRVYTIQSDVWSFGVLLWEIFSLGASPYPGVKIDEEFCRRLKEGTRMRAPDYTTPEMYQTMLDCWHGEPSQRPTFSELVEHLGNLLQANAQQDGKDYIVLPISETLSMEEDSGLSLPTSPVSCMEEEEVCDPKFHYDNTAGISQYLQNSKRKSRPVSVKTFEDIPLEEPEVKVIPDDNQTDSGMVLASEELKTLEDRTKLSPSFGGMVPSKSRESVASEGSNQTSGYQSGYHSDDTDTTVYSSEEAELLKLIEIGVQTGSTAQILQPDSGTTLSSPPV
The subject of the next data set is EA.hy926. Put plainly: Human endothelial cell (EA.hy926) viability assay, CCK-8. In kind it is cell-based. The settings on record: CCK-8, 24 h treatment, read-out: Inhibition of human endothelial cell viability, EA.hy926 IC50. The protocol: In order to determine the anti-angiogenic effect of these multi-target inhibitors, we evaluated their effect on HECs (EA.hy926) viability using cell counting kit-8 (CCK-8) method.
The viability of HECs (EA.hy926) was assessed using the cell counting kit-8 (CCK-8, Sigma, USA) assay according to the manufacturer's instruction. […] After incubation at 37°C for 48 h, the cells were treated with tested compounds at various concentrations for 24 h. Subsequently, premixed CCK-8 and medium (10 μL) were added into the 96-well plates to monitor cell viability and were incubated at 37°C for 2 h. The number of viable cells was assessed by measurement of absorbance at 450 nm by a microplate reader. The viability rate was calculated as experimental OD value/control OD value.

The next data set deals with MCF-7 xenograft. Put plainly: In vivo MCF-7 xenograft mice model. The settings on record: ig, 40 mg/kg daily, 21 days.
The target of data set [2] is T2, VEGFR-2. Put plainly: VEGFR-2/cell membrane chromatography (CMC) affinity evaluation. The class given is binding. The settings on record: flow rate 0.6 mL/min, 37°C, 5 mM PBS pH 7.4, 270 nm. On the procedure:
In previous studies, artificial cultures highly expressing VEGFR-2 on HEK293 cell lines were constructed. […] Chromatographic conditions: 10 mm×2.0 mm; flow rate0.6 mL/min; column temperature 37°C; mobile phase 5 mM PBS, pH 7.4; detection wavelength 270 nm.
The VEGFR-2 cell membrane stationary phase was prepared as previous reported. Aqueous ammonium acetate buffer solution (pH 7.4, 5 mM) was pumped at a flow rate of 0.2 mL/min as the mobile phase after VEGFR-2/CMC column was loaded onto the chromatography system at the temperature of 37°C. […] The mobile phase was 5.0 mM phosphate burred saline with a 0.6 mL/min flow rate at a column temperature of 37°C. The detected wavelength was 270 nm. The test compound was injected into the VEGFR-2/CMC column and their retention characteristics were identified to evaluate their affinity with VEGFR-2.

Sequence of c-Kit (P10721 26-976): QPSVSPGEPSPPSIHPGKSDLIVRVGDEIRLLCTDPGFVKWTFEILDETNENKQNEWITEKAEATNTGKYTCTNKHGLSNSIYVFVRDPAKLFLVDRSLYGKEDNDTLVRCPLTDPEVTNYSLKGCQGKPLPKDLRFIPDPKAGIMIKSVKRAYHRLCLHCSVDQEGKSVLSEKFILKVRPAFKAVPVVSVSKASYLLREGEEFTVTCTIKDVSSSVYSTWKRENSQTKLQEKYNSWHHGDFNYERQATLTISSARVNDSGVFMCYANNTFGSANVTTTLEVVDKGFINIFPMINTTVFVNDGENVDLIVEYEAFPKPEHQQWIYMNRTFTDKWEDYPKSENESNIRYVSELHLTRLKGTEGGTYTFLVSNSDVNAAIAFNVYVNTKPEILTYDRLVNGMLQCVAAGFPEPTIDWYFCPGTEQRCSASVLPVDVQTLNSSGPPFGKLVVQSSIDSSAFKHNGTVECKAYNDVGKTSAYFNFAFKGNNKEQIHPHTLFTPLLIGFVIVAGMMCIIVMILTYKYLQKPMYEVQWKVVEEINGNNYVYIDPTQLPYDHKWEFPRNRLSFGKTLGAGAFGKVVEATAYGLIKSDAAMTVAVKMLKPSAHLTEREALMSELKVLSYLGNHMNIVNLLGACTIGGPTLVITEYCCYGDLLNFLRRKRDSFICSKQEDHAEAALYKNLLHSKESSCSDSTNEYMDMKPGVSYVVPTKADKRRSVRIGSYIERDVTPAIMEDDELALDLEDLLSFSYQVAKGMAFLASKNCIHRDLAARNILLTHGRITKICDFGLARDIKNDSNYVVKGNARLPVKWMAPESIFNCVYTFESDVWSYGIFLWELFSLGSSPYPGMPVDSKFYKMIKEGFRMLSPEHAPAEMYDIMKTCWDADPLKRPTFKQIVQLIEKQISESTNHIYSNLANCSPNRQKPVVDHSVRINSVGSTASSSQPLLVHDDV
Sequence of VEGFR-1 (P17948 27-1338, species assumed): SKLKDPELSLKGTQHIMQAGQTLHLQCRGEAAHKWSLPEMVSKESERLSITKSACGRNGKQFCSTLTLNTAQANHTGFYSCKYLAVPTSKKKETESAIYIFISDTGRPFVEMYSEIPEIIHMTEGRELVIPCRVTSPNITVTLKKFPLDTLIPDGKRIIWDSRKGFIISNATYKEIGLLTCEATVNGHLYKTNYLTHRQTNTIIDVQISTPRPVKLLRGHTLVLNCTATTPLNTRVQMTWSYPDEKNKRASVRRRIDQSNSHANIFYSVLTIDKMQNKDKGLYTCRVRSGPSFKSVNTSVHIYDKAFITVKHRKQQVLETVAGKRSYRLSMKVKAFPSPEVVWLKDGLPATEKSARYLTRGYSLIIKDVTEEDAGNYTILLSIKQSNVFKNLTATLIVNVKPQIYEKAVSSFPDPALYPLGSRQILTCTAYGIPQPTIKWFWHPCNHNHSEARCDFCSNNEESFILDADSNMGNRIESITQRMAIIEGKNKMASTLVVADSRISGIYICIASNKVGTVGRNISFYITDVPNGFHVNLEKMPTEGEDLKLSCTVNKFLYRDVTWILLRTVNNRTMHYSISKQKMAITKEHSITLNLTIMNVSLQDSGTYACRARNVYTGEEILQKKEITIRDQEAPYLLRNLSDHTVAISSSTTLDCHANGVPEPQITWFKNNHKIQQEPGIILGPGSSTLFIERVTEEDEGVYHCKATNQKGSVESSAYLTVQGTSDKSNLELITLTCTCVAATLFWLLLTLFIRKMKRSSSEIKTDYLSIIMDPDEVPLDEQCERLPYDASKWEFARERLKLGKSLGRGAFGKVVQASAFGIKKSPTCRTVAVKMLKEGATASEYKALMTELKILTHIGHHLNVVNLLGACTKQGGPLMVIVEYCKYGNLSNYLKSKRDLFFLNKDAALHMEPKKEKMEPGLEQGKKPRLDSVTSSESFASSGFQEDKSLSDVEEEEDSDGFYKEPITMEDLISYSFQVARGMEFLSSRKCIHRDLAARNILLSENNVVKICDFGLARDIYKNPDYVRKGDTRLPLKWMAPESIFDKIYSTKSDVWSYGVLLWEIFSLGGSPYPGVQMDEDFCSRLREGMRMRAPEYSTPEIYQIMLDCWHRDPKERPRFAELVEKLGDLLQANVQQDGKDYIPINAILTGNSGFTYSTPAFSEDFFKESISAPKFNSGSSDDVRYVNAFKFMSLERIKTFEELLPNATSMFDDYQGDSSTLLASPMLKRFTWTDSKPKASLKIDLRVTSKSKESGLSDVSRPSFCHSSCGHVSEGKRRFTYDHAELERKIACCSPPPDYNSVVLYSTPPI
Sequence of EGFR (P00533 25-1210, species assumed): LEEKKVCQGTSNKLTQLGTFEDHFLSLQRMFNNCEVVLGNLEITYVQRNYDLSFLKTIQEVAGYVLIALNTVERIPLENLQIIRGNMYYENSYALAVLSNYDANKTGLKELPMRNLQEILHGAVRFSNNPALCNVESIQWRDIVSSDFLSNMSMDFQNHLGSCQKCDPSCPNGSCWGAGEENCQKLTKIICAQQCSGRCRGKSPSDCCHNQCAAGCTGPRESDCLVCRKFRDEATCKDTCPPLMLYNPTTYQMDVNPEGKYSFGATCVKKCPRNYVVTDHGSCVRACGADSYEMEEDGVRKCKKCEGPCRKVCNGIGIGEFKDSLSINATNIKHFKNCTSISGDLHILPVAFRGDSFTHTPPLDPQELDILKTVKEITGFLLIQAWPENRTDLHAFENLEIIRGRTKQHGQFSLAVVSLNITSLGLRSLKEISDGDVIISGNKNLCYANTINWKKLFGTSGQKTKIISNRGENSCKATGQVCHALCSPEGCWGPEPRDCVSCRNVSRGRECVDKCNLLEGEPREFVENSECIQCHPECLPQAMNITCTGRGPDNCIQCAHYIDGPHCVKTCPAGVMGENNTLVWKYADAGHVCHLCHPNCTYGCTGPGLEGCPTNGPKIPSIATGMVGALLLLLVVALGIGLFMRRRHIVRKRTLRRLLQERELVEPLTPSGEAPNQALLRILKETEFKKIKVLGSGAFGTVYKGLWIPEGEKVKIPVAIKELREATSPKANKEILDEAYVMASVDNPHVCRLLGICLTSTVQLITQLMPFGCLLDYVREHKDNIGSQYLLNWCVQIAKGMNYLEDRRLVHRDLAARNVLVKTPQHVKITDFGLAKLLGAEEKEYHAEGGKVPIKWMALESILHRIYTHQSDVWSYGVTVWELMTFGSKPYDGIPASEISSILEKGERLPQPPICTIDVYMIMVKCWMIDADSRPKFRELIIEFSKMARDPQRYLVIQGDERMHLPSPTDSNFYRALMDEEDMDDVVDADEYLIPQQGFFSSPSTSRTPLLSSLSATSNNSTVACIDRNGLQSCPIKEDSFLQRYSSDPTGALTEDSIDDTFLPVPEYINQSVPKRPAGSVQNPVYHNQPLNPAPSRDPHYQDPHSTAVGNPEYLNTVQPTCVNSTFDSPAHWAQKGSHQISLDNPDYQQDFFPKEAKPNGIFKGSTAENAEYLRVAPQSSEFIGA
Procedure for MCF-7 xenograft: Six-week old female BALB/c mice were purchased from Shanghai Laboratory Animal center of the Chinese Academy of Sciences and housed under aseptic and ventilated condition. The mice were inoculated by subcutaneous injection with MCF-7 cancer cells suspended in 5% saline. Tumor volume and weight were measured on alternate days. Body weights were monitored as an indicator of toxicity. […] Treatment started from the next day and continued for 21 days. All mice were killed at the end of the experiment, and subcutaneous tumors were removed and weighted.

As a reminder, the IC50 is the midpoint of a concentration-inhibition curve. As a reminder, the melting point is the temperature, or range, at which the solid turns liquid. The compound `O=C(Nc1ccc(-c2ccc3c(=O)[nH]cnc3c2)cc1)Nc1ccccc1F` [QDAU4, 1-(2-fluorophenyl)-3-(4-(4-oxo-3,4-dihydroquinazolin-7-yl)phenyl)urea] showed a melting point of more than 300 °C. The IC50 on EGFR was 113 nM. Besides, the IC50 on c-Kit is more than 500 nM. The IC50 at EphB4 was 13.9 nM. The IC50 at FGFR-4 is 83.4 nM. In addition, on FGFR-1, the IC50 is 166 nM. In addition, the IC50 on VEGFR-1 amounted to 68.3 nM. Moreover, the IC50 on B-Raf worked out at 136 nM. At TIE-2, the midpoint of inhibition, the IC50, lay at 4.91 nM. For the same compound, the IC50 against VEGFR-2 [1] worked out at 1.91 nM. The IC50 with EA.hy926 came out at 8.64 µM. Further, in the data set on EA.hy926 (Homo sapiens, EA.hy 926, 24 h), the IC50 is less than 10 µM.

For the compound `CNC(=O)c1cc(Oc2ccc(NC(=O)Nc3ccc(Cl)c(C(F)(F)F)c3)cc2)ccn1` [Sorafenib, sorafenib, reference compound], in the data set with MCF-7 xenograft, the Final body weight worked out at 16.8 ± 0.9 g and the Tumor growth inhibition is reported as 53%. For the same compound, the Final tumor weight with MCF-7 xenograft (control 0.848±0.5) was determined as 0.398 ± 0.8 g.

In the case of `CNC(=O)c1cc(Oc2ccc(NC(=O)Nc3ccc(Cl)c(C(F)(F)F)c3)c(F)c2)ccn1` [regorafenib, reference compound], the “Retention time on VEGFR-2/cell membrane stationary phase column” value on VEGFR-2 [2] was 11 min and 10.6 min.

Take `COc1cc2c(Nc3ccc(Br)cc3F)ncnc2cc1OCC1CCN(C)CC1` [vandetanib, reference compound]: the “Retention time on VEGFR-2/cell membrane stationary phase column” value at VEGFR-2 [2] was determined as 4.5 min.
